# Results published in patent US9532975B2, “Use of levo-oxiracetam and oxiracetam in preparation of medicines for preventing or treating coma” (CHONGQING RUNZE PHARMACEUTICAL COMPANY LIMITED., priority 2011, dated 2017).
# Experiments:
# [1] = in vivo; design: species or system Beagle dogs; conditions: dog, 50 mg/kg
# Experimental: The study of comparing the pharmacokinetic of the racemic oxiracetam and L-oxiracetam determines the dose orally and intravenously to Beagle dogs for 50 mg/kg.
# Take six adult Beagle dogs, the numbers of female and male were equal, which were weighted 10.0±0.5 kg and randomly divided into three groups, and each group were two with same numbers of the male and female. Latin square crossover method was used (see Table 1). Beagle dogs were administered orally and intravenously at a dose of 50 mg/kg. L-oxiracetam samples with 99.3% (optically pure) of purity were used. Each route of administration was performed every week. Animals orally administered were fasted for 12 hours […] continued fasting three hours after administration. Blank blood was taken prior to administration. Blood sample were taken 1 mL from forelimbs vein into heparinized tubes in 0.083, 0.25, 0.5, 0.75, 1.0, 1.5, 2.0, 4.0, 6.0, 8.0, 12.0 and 24.0 hours after oral administration, or taken in 0.083, 0.25, 0.5, 0.75, 1.0, 1.5, 2.0, 4.0, 6.0, 8.0, 12.0 and 24.0 hours after intravenous administration, and centrifuged to obtain plasma. The concentrations of drugs in plasma were determined by LC-MS-MS method. The results in the table below 2-7.
# [2] = tested on: alcoholic coma mouse model; assay: Alcohol-induced coma in mice, sleep time (duration of loss of righting reflex); type: in vivo; conditions: for wake-promoting effect on alcoholism-induced coma (in words): doses of Table 8
# Experimental: • 1. Drugs and reagents: L-Oxiracetam, D-Oxiracetam and racemic oxiracetam; naloxone, purchased from Chongqing Yaoyou Pharmaceutical Co., Ltd.; anhydrous ethanol, purchased from Shanghai Chemical Reagent Co., Ltd. Physiological saline is commercially available. Each solution was freshly prepared. • 2. Preparation of ethanol solution: anhydrous ethanol was diluted with saline to produce 30% ethanol solution, freshly prepared. • 3. Experimental animals: Male mice weighing 18-22 grams were provided by the special committee, Sichuan experimental animal farms (License: SCXK (Chuan) 2008-14). Animal experiments facilities continue to maintain barriers environmental standards. Control of key environmental indicators: the temperature of 20.0-25.0° C., relative humidity of 40-70%. 10-20 air changes/hour, lighting:dark=14 h:10 h. Animals were housed in standard boxes, each box had 5. (B) Experimental Methods
# 1. Preparation of alcoholic coma mouse model: With reference to the literature (M. E L Yacoubi, C. Ledent, M. parmentier, et al Caffeine reduces hypnotic effects of alcohol through adenosine A2A receptor blockade [J] Neuropharmacology, 2003, 45(7):977-985) modeled the process of 30% ethanol solution intraperitoneally (0.2 ml/10 g).
# 2. Method of determination of states of consciousness of mouse discriminating: According to the literature (Jeffrey R. Stephens, Rene H. Levy. Effects of valproate and citrulline on ammonium-Induced encephalopathy [J] Epilepsia, 1994,35 (1):164-171) performed the determination of states of consciousness: level 1, reduced activity in the cage; level 2, limb ataxia associated with reduced activity; level 3, scrolled when placed in the bottom of the back of the cage (righting reflex), but could not stand; level 4, back into the cage end position cannot be corrected, but the damage manifested as physical stimulation retraction; level 5, righting reflex (Loss of Righting Reflex, LORR) and the lack of response to noxious stimuli. Level 4, 5, considered animal in a coma.
# The 150 animals were randomly divided into 10 groups: model control group (saline only); […]; dextral Oxiracetam up two groups, respectively: 90,180 mg/kg group; L oxiracetam set up three groups, namely: 30 mg/kg, 90 mg/kg and 180 mg/kg group; naloxone group, a dose of 1.5mg/kg. After each group were successfully prepared animal models, random tables grouped righting reflex one minute after tail vein injection. The mice were observed duration of righting reflex, that sleep time. Statistical results: the experimental data with x±sd, said comparison between the groups were analyzed using ANOVA and q test, test level: α=0.05.
# [3] = tested on: ketamine-induced coma in mice; assay: Ketamine-induced coma in mice, duration of loss of righting reflex; type: in vivo, Kunming mice; conditions: for Time of Sleep (The duration of reflex action, min): ketamine 120 mg/kg i.p. induced coma
# Experimental: • 1.1 Experimental animal and grouped 150 Kunming mice, male, weight (25.3±1.9) g, provided by the special committee of Sichuan experimental animal farms. (License: SCXK (Chuan) 2008-14). Animal experiments facilities continue to maintain barriers environmental standards. Control of key environmental indicators: the temperature of 20.0-25.0° C., relative humidity of 40-70%. 10-20 air changes/hour, lighting:dark=14 h:10 h. Animals were housed in standard boxes, each box 5.
# Mice after three consecutive supine standing for 5 s can not be restored righting reflex recovery after three consecutive sit-stand for the righting reflex. • 1.4 Statistical analysis of data with x±sd was expressed using statistical software SPSS 12.0 for data analysis. The groups were compared using ANOVA, test level: A=0 05. 2. Results
# [4] = tested on: traumatic brain coma in rats; assay: Traumatic brain coma in rats (Feeney method), coma level score; type: in vivo, SD rats; conditions: for Remark: animals that survived: 10 animals, 8 h observation, cell wraps: All / survived
# [5] = compared with the racemate; cited from earlier work
# [6] = both sexes, Beagle, iv, Drug concentrations in plasma
# [7] = alcohol-induced coma, 30 mg/kg tail vein injection
# [8] = alcohol-induced coma, 180 mg/kg tail vein injection
# [9] = traumatic brain coma, 125 mg/kg, levels 1-6 (5 and 6 = coma)
# [10] = traumatic brain coma, 1 mg/kg, levels 1-6 (5 and 6 = coma)
smiles,measurement,setting,value
NC(=O)CN1CC(O)CC1=O (racemic) [oxiracetam],concentration at 1 h,[1]; [6],30800 ng/mL
same,concentration at 1.5 h,[1]; [6],38800 ng/mL
same,concentration at 2 h,[1]; [6],35300 ng/mL
same,concentration at 4 h,[1]; [6],13000 ng/mL
same,concentration at 6 h,[1]; [6],9350 ng/mL
same,"Time of Sleep (The duration of reflex action, min)","[2]; alcohol-induced coma, 60 mg/kg tail vein injection",96.8 ± 12.7 min
same,"Time of Sleep (The duration of reflex action, min)","[2]; alcohol-induced coma, 150 mg/kg tail vein injection",86.1 ± 9.4 min
same,"Time of Sleep (The duration of reflex action, min)","[2]; alcohol-induced coma, 360 mg/kg tail vein injection",65.1 ± 10.2 min
same,wake-promoting effect on alcoholism-induced coma (in words),[2],certain awaking effect
same,awaking effect on ketamine-induced coma (in words),[3]; dose range 150-360 mg/kg,also had such effect
same,"Time of Sleep (The duration of reflex action, min)",[3]; 60 mg/kg,21.3 ± 6.7 min
same,"Time of Sleep (The duration of reflex action, min)",[3]; 150 mg/kg,15.3 ± 6.4 min
same,"Time of Sleep (The duration of reflex action, min)",[3]; 360 mg/kg,14.2 ± 6.2 min
NC(=O)CN1C[C@H](O)CC1=O [D-Oxiracetam],"Time of Sleep (The duration of reflex action, min)",[2]; [7],105.3 ± 15.8 min
same,"Time of Sleep (The duration of reflex action, min)",[2]; [8],98.8 ± 11.6 min
same,wake-promoting effect on alcoholism-induced coma (in words),[2],basically had no effect
same,awaking effect on ketamine-induced coma (in words),[3]; dose range 30-180 mg/kg,no effect
same,"Time of Sleep (The duration of reflex action, min)",[3]; 30 mg/kg,25.6 ± 8.9 min
same,"Time of Sleep (The duration of reflex action, min)",[3]; 180 mg/kg,22.8 ± 6.5 min
"NC(=O)CN1C[C@@H](O)CC1=O [L-oxiracetam, (S)-4-hydroxy-2-oxo-pyrrolidineacetamide]",absolute bioavailability estimated through AUC0−∞,[1],65.76±9.12%
same,AUC(0-inf),[1]; iv,243 ± 37.8 µg·h/mL
same,effect of awaking relative to racemic oxiracetam,[2]; alcohol-induced coma,~2 times
same,"Time of Sleep (The duration of reflex action, min)",[2]; [7],85.8 ± 10.6 min
same,"Time of Sleep (The duration of reflex action, min)","[2]; alcohol-induced coma, 75 mg/kg tail vein injection",63.5 ± 9.8 min
same,"Time of Sleep (The duration of reflex action, min)",[2]; [8],48.5 ± 9.1 min
same,wake-promoting effect on alcoholism-induced coma (in words),[2],obvious
same,awaking effect on ketamine-induced coma (in words),[3]; dose range 30-180 mg/kg,significant awaking effect
same,"Time of Sleep (The duration of reflex action, min)",[3]; 30 mg/kg,19.6 ± 5.6 min
same,"Time of Sleep (The duration of reflex action, min)",[3]; 75 mg/kg,15.2 ± 4.9 min
same,"Time of Sleep (The duration of reflex action, min)",[3]; 180 mg/kg,13.8 ± 3.8 min
same,wake-promoting effect on traumatic coma (in words),"[4]; 125 mg/kg, after 1 hour",significant improvement in awareness
same,Remark: animals that survived,"[4]; traumatic brain coma, 125 mg/kg, 125 mg/kg",All
same,Remark: animals that survived,"[4]; traumatic brain coma, 125 mg/kg, listed as left oxiracetam, 125 mg/kg",no occurrence of an animal died
same,"coma level score, post-traumatic observation point 1 h",[4]; [9],5.1 ± 0.88
same,"coma level score, post-traumatic observation point 2 h",[4]; [9],3.8 ± 0.78
same,"coma level score, post-traumatic observation point 4 h",[4]; [9],3.0 ± 0.82
same,"coma level score, post-traumatic observation point 8 h",[4]; [9],2.0 ± 0.67
same,"coma level score, post-traumatic observation point 1 h","[4]; traumatic brain coma, 125 mg/kg, levels 1-6 (5 and 6 = coma), listed as left oxiracetam",5.1
same,solubility (in words),[5],significantly better than the racemate
C=CCN1CC[C@]23c4c5ccc(O)c4O[C@H]2C(=O)CC[C@@]3(O)[C@H]1C5 [Naloxone],"Time of Sleep (The duration of reflex action, min)","[2]; alcohol-induced coma, 1.5 mg/kg tail vein injection",60.5 ± 7.8 min
same,"Time of Sleep (The duration of reflex action, min)",[3]; 1.5 mg/kg,13.5 ± 4.2 min
same,awaking effect on ketamine-induced coma (in words),[3]; positive reference drug 1.5 mg/kg,significant effect
same,wake-promoting effect on traumatic coma (in words),"[4]; 1 mg/kg, positive drug",good wake-promoting effect
same,Remark: animals that survived,"[4]; traumatic brain coma, 1 mg/kg",All
same,"coma level score, post-traumatic observation point 1 h",[4]; [10],4.4 ± 0.96
same,"coma level score, post-traumatic observation point 2 h",[4]; [10],3.6 ± 0.84
same,"coma level score, post-traumatic observation point 8 h",[4]; [10],1.9 ± 0.88
